The text below walks through data of US11339150B2, “Benzimidazole compounds as HDAC6 inhibitors” (OnKure, Inc., priority 2019, dated 2022).

Data set [1] has as its system Tubulin deacetylation in U266B1 human myeloma cell line. The experiment in a line: Tubulin deacetylation inhibition in U266B1 cells. The format is cell-based. The settings on record: Cell Type U266B1. The method, then: Tubulin Deacetylation Inhibition
Example 1 was dissolved with DMSO at 10 mM stock. Reference compound TSA was dissolved with DMSO at 10 mM stock. U266B1 human myeloma cell line was purchased from American Type Culture Collection (Manassas, Va.). U266B1 cells were grown in RPMI medium and supplemented with 15% heat-inactivated fetal bovine serum (FBS), 100 μg/ml penicillin, and 100 μg/ml streptomycin. Cultures were maintained at 37° C. in a humidified atmosphere of 5% CO2 and 95% air. 12% Bis-Tris gel and nitrocellulose membrane were purchased from Thermo Fisher. Anti-acetylated-Tubulin antibody (Catalogue #T7451) was purchased from Sigma-Aldrich. Anti-α-Tubulin antibody (Catalogue #sc-12462-R) antibody was purchased from Santa Cruz Biotechnology. Anti-Acetylated Histone H3 (K9) (Catalogue #9649) and anti-Histone H3 (Catalogue #3638) antibodies were purchased from Cell Signaling Technology. Anti-rabbit IgG IRDye 680RD or anti-mouse IgG IRDye 800CW secondary antibodies were purchased from LI-COR.

Another data set has as its target HDAC3 (Homo sapiens, UniProt O15379). The experiment in a line: HDAC assay (fluorogenic substrate), HDAC3. The settings on record: isoform selectivity table. The format is biochemical. The protocol: (§1) Base Reaction buffer: 50 mM Tris-HCl, pH8.0, 137 mM NaCl, 2.7 mM KCl, and 1 mM MgCl2. Add fresh: 1 mg/ml BSA, 1% DMSO
(§2) Fluorogenic HDAC General Substrate: 50 μM, Arg-His-Lys-Lys(Ac)
(§3) • 1. Deliver 2× enzyme in wells of reaction plate except No Enzyme control wells. Add buffer in No En wells. • 2. Deliver compounds in 100% DMSO into the enzyme mixture by Acoustic technology (Echo550; nanoliter range). Spin down and pre-incubation. • 3. Deliver 2× Substrate Mixture (Fluorogenic HDAC Substrate and co-factor if applicable) in all reaction wells to initiate the reaction. Spin and shake. • 4. Incubate for 30 min for Class 2A, 1 hr for HDAC1, 2, 3, and 6, and 2 hr for the rest of HDACs and SIRTs at 30° C. with seal. Development Step: • 5. Add Developer with Trichostatin A (or Nicotinamide for SIRTs) to stop the reaction and to generate fluorescent color. • 6. Kinetic measurement for 1.5 hr with Envision with 15 min interval. (Ex/Em=360/460 nm) • 7. Take endpoint reading for analysis after the development reaches plateau.

The target of another data set is HDAC2 (Homo sapiens, UniProt Q92769). The experiment in a line: HDAC assay (fluorogenic substrate), HDAC2. It counts as biochemical. The following applies: isoform selectivity table. The protocol: as §1, §2, §3
Data set [2] can be described thus: Pharmacokinetic evaluation in male CD1 mice. The following applies: mouse, in vivo, po, 10 mg/kg (p.o.).
For the next data set, the target named is HDAC1 (Homo sapiens, UniProt Q13547). The experiment in a line: HDAC assay (fluorogenic substrate), HDAC1. It counts as biochemical. The settings on record: isoform selectivity table. The protocol:
as §1, §2, §3

A further data set concerns the target T1, HDAC6 (Homo sapiens, UniProt Q9UBN7).
T1 sequence (Q9UBN7 1-1215): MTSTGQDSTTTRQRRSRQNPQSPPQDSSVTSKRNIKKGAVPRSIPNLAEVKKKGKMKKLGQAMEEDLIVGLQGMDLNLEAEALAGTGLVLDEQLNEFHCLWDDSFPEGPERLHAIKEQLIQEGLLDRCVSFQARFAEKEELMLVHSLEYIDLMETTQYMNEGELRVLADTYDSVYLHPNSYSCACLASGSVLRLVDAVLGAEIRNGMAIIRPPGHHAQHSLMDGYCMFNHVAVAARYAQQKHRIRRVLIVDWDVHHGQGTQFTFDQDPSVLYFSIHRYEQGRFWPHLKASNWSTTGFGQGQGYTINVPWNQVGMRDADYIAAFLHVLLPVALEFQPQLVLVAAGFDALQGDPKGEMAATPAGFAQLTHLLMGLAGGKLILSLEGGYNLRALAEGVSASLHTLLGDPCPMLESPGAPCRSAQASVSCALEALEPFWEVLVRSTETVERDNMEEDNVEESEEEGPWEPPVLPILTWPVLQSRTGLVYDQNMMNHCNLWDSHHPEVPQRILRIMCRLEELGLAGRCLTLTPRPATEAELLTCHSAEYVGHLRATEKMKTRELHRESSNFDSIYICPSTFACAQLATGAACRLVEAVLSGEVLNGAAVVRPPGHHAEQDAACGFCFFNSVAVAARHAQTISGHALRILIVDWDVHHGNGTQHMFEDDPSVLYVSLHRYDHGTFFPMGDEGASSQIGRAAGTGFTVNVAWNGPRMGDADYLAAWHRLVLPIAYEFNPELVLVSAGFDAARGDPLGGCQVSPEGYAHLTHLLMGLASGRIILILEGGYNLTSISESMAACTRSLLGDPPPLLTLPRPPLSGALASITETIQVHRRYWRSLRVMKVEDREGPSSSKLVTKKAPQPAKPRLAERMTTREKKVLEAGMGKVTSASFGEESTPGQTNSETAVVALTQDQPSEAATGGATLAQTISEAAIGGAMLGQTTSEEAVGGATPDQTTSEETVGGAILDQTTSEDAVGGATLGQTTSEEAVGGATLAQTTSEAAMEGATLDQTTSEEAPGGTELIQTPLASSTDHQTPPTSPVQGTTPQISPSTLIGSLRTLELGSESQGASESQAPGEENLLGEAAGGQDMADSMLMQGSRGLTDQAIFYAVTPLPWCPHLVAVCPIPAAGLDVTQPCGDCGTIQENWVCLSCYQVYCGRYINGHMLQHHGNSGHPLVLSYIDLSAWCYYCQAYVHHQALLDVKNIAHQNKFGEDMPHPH
The experiment in a line: HDAC assay (fluorogenic substrate), HDAC6. It counts as biochemical. The method, then: as §1, §2, §3

Usually IC50 stands for the concentration needed to halve the response being measured. The term inhibition denotes how much of the control response was suppressed. A low value points to a weak effect. In general, AUC(0-t) refers to exposure summed from dosing to a finite time, without extrapolation to infinity. High values mean more exposure, low ones less exposure. The Cmax is the maximum level reached in the sampled fluid or tissue.

Where only a bound is given, the exact number is not on record here.

Sequence of HDAC1 (Q13547 whole entry, canonical isoform): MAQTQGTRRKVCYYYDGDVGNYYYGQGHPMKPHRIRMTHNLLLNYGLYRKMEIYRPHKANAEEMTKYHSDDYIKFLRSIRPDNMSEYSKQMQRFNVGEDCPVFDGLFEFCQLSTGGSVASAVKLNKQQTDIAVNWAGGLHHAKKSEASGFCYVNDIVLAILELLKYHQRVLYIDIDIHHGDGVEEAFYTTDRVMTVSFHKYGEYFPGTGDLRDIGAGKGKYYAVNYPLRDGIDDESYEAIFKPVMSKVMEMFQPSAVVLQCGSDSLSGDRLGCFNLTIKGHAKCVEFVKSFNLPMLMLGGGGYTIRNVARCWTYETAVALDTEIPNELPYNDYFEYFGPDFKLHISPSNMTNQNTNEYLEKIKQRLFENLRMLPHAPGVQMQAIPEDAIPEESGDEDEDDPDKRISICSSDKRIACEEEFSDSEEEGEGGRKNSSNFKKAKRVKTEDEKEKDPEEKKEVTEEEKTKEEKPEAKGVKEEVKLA
Sequence of HDAC2 (Q92769 whole entry, canonical isoform): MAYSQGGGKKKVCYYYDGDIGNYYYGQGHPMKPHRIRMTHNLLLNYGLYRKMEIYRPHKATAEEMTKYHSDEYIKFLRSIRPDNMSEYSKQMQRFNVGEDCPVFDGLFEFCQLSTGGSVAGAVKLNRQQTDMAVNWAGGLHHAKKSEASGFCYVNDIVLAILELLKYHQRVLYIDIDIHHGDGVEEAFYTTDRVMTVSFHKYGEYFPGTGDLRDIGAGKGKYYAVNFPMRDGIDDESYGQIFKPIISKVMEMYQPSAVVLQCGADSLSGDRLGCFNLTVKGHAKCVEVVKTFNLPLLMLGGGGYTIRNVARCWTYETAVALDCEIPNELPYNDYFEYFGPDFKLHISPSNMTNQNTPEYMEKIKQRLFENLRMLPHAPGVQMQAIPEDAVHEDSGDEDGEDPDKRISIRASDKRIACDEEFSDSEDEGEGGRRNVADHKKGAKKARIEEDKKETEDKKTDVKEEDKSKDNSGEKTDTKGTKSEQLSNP
Sequence of HDAC3 (O15379 whole entry, canonical isoform): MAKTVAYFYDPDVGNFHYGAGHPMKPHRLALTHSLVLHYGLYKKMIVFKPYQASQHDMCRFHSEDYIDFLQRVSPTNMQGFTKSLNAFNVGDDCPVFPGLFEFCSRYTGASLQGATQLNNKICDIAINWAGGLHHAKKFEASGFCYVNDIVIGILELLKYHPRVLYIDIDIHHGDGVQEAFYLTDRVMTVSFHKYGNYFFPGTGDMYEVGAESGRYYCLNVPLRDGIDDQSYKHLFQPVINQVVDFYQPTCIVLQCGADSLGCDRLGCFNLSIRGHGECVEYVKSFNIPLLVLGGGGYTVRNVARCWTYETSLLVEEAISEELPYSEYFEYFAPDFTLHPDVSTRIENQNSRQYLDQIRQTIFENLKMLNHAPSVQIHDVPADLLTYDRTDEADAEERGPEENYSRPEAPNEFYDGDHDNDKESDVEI
Sequence of HDAC3 (Q9Y618 395-489 partner limits assumed): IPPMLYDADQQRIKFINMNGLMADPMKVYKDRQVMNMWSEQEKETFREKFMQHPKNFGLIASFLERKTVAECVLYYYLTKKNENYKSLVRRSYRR

`FC(F)c1nnc(-c2cnc(Nc3cc(-c4ccccc4)c4nc[nH]c4c3)nc2)o1` [Example 1, N-(5-(5-(difluoromethyl)-1,3,4-oxadiazol-2-yl)pyrimidin-2-yl)-4-phenyl-1H-benzo[d]imidazol-6-amine]: it took 2700 nM to reach half-maximal inhibition in data set [1] (IC50). Also, the inhibition at 10 µM on HDAC3 is below 10%; against HDAC2, below 10%; against HDAC1 it was below 20%; at HDAC6, above 90%. The same compound gave an AUC(0-t) in data set [2] of 5820 ng·h/mL. The same compound came in with a Cmax in data set [2] of 1450 ng/mL. Besides, the half-life in data set [2] (read-out: T1/2 h (converted)) is 1.75 h. In addition, the “% HDAC6 Inhibition @ 10 uM” value at HDAC6 (10 uM, isoform selectivity table) is above 90%.

The compound `CC(/C=C/C(=O)NO)=C\[C@@H](C)C(=O)c1ccc(N(C)C)cc1` [Trichostatin, reference compound] had an IC50 in data set [1] of 750 nM.
